In paper PMC8808171, “Nonselective TRPC channel inhibition and suppression of aminoglycoside-induced premature termination codon readthrough by the small molecule AC1903” (The Journal of Biological Chemistry, 2022):

Target: T1, TRPC4:C4 (Homo sapiens, UniProt Q9UBN4)
T1 construct: expressed in transfected cells; host or cells: HEK T-REx (tetracycline-induced)
T1 sequence (Q9UBN4 1-893 isoform Q9UBN4-2): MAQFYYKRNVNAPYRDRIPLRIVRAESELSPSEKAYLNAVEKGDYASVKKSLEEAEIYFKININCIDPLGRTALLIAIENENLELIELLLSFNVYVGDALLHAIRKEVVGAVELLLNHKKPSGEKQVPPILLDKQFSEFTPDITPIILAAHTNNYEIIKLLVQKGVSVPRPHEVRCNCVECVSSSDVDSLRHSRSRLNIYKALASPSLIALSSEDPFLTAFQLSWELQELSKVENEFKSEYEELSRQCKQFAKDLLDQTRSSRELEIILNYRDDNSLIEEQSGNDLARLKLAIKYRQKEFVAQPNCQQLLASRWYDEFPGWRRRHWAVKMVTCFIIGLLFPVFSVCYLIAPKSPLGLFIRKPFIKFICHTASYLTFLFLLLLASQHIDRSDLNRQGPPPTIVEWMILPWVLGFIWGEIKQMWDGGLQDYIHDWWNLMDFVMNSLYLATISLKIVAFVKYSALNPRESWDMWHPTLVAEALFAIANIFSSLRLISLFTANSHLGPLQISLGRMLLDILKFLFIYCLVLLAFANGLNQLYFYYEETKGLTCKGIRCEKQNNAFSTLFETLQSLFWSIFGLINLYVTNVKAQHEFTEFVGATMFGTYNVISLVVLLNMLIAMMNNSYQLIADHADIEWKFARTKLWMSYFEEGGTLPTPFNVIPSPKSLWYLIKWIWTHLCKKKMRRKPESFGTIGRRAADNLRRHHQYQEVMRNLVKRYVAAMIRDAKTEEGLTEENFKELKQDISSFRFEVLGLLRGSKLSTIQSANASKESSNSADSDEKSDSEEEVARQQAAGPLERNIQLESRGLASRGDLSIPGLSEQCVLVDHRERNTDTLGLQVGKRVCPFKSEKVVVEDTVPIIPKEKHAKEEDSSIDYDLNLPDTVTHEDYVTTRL
Assay: [Ca2+]i recordings (Fura-2), TRPC4:C4 in HEK T-REx cells
Format: cell-based
Conditions: for IC50: HEK T-REx
Protocol: Based on the findings described above, we wondered whether AC1903—which is typically used as a TRPC5 inhibitor at concentrations of 30–100 μM in cellular assays ([29], [56])—might have limited selectivity for TRPC5 channels and whether its effect on intracellular G418 levels and PTC readthrough might be the consequence of inhibition of other or multiple targets. All well-characterized TRPC channel inhibitors reported to date modulate multiple TRP(C) channels ([34], [35], [36]). […] Because limited data for the selectivity of AC1903 are available in the public domain, we decided to profile AC1903 against a selection of calcium-permeable cation channels by intracellular calcium ([Ca^2+]i) recordings using well-characterized cell lines and TRP channel activators ([46], [57], [58]), and the Ca^2+ indicator Fura-2. In these assays, cells (HEK 293, HEK T-REx, or CHO) overexpressing the relevant ion channel protein and loaded with Fura-2 AM (a cell-permeable precursor of Fura-2) were preincubated with various concentrations of AC1903 or vehicle (DMSO) for 30 min. Then, changes in ratiometric fluorescence (from background) were recorded upon addition of the respective ion channel activator.
Figure 4 AC1903 inhibits multiple TRP channels.A and C, representative [Ca^2+]i measurements from a single 96-well plate (N = 6; mean ± SD over technical replicates) showing inhibition of EA-mediated [Ca^2+]i responses by 0.1 to 100 μM AC1903 in (Tet+) HEK T-REx cells expressing TRPC5 (A) or TRPC4 (C). B and D, concentration–response data for experiments in (A) and (C) (scatter plots showing normalized data for three independent experiments; n/N = 3/18). Responses were calculated at 250 to 295 s compared to [Ca^2+]i at baseline (0–55 s). E and G, representative [Ca^2+]i measurements from a single 96-well plate (N = 6; mean ± SD over technical replicates) showing inhibition of OAG-mediated [Ca^2+]i responses by 0.1 to 100 μM AC1903 in (Tet+) HEK T-REx cells expressing TRPC3 (E) and WT HEK 293 cells transiently expressing TRPC6 (G). F and H, concentration–response data for experiments in (E) and (G) (scatter plots showing normalized data for three independent experiments; n/N = 3/18). Responses were calculated at 90 to 110 s compared with [Ca^2+]i at baseline (0–55 s). I, representative [Ca^2+]i measurements from a single 96-well plate (N = 6; mean ± SD over technical replicates) showing inhibition of the 4α-PDD-mediated [Ca^2+]i response by 0.1 to 100 μM AC1903 in CHO cells stably expressing TRPV4. J, concentration–response data for experiments in (I) (scatter plot showing normalized data for three independent experiments; n/N = 3/18). Responses were calculated at 290 to 300 s compared with [Ca^2+]i baseline (0–55 s). EA, (-)-englerin A; TRPC, transient receptor potential canonical. […]

`c1ccc(Cn2c(NCc3ccco3)nc3ccccc32)cc1` [AC1903] showed an IC50 (activator EA (30 nM)) of 2.1 µM, an IC50 (activator S1P (10 μM)) of 1.8 µM and a Hill slope (activator EA (30 nM)) of -1.7. The Hill slope (activator S1P (10 μM)) was -1.9.
